Measured values: patent US6057371A, “Sigma receptor ligands and the use thereof” (Virginia Commonwealth University, priority 1992, dated 2000)
Read-outs that look alike come from different tables or passages of the source.

Key:
[1] = molecular target: PCP receptor; experiment: PCP receptor binding, ^3 H-MK-801; parameters: species or system rat; settings: Table 4
Protocol: PCP receptor binding assays against ^3 H-MK-801 were conducted as described by Keana et al., Proc. Natl. Acad. Sci (USA) 86: 5631-5635 (1989); Keana et al., Life Sciences 43: 965-973 (1988). For (+) ^3 H-MK-801 binding, 1 nM of radioligand was incubated with about 100 ug of thawed rat brain membrane protein for 4 hr at room temperature. The assays were carried out in 5 mM Tris/acetate and were stopped by rapid filtration through Whatman GF/B or Schleicher & Schuell no. 32 glass fiber filters (presoaked in 0.05% polyethylenamine).

[2] = molecular target: T1, 5-HT1A receptor (Rattus norvegicus, UniProt P19327); experiment: biochemical; assay type: binding; parameters: 47: 529-540 (1986); from tissue; host or cells: brain tissue, inferred from the cited method (rat frontal cortex)
T1 sequence (P19327 1-422): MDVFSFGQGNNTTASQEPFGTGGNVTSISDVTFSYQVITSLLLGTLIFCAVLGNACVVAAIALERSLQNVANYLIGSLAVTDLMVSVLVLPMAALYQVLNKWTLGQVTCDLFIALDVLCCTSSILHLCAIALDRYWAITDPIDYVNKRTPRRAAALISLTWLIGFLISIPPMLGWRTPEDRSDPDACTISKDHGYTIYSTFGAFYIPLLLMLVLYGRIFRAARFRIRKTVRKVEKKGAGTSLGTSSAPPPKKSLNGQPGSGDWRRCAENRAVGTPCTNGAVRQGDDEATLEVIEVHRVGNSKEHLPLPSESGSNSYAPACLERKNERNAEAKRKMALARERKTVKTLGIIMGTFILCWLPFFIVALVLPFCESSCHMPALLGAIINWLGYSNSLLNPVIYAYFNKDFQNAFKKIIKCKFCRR
Protocol: Further sigma receptor binding assays against [^3 H]DTG and 5HT-1A binding assays were conducted according to the procedure outlined in the previous examples.

[3] = molecular target: sigma receptor; experiment: Sigma receptor binding, [^3 H]DTG, brain membranes (both sigma-1 and sigma-2 sites); parameters: species or system guinea pig; settings: for IC50: Table 6, [^3 H]DTG
[4] = molecular target: T2, sigma-1 binding site (Cavia porcellus, UniProt Q60492); experiment: biochemical; parameters: species or system guinea pig
T2 construct: Guinea pig whole membrane preparations (P2 microsomal fraction); from tissue; host or cells: guinea pig membranes (P2 microsomal fraction), as described by Weber et al; brain inferred from the sister test b489
Protocol: [^3 H]DTG was purchased from DuPont/NEN.
The radioactivity on the filters was determined by scintillation spectrometry at an efficiency of about 50% using Cytoscint (ICN) scintillation fluid.

[5] = molecular target: T3, sigma-2 binding site (Cavia porcellus, UniProt H0V073); experiment: biochemical; parameters: species or system guinea pig; settings: for Ki: Table 10, read-out: SIGMA-2 KI vs. 3H-DTG + PENTAZOCINE MEAN; for IC50: Example 9, read-out: sigma-2 IC50
T3 construct: Guinea pig whole membrane preparations (P2 microsomal fraction); from tissue; host or cells: guinea pig membranes (P2 microsomal fraction), as described by Weber et al; brain inferred from the sister test b489
T3 sequence (H0V073 1-176): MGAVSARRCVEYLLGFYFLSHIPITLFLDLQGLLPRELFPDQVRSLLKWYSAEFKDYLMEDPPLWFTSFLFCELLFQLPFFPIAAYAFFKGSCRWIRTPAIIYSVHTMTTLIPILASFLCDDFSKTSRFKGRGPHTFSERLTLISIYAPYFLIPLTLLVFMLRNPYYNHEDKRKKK
Protocol: For the standard equilibrium assay, the mixtures were incubated for 30 min. at room temperature, then filtered and the radioactivity determined as described above.

[6] = Table 10, read-out: SIGMA-1 KI vs. 3H-PENTAZOCINE MEAN
[7] = less than about 0.1, see Table 10
[8] = Table 6, read-out: 5HT-1A (nM) MEAN
[9] = Table 7, Phenyl-(CH2)x -NH--(CH2)y -Phenyl, read-out: Ki

T2 sequence (Q60492 whole entry): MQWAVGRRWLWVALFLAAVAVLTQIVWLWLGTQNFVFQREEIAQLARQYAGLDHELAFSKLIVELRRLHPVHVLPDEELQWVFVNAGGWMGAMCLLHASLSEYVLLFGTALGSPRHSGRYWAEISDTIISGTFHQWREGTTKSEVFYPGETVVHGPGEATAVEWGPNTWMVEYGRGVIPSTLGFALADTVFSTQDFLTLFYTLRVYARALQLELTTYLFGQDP

Row | Compound | IC50 [1] | Ratio 5-HT1A /σ ([2]; Table 5) | IC50 ([2]; Table 5, read-out: 5-HT1A IC50) | IC50 [3] | Ki [5] | IC50 [2, 8] | further results
1 | c1ccc(CCCN2CCN(c3ccccc3)CC2)cc1 [Compound 46] | > 10000 nM | 3 | 21.5 nM |  |  |  | 
2 | c1ccc(CCCCN2CCN(Cc3ccccc3)CC2)cc1 [Compound 79, N-(4-phenylbutyl)-N'-benzylpiperazine] |  |  |  | 2.25 nM | 6.99 nM | 173 nM | Ki [4, 6]: 0.17 nM; S1/S2 Ratio ([4]; Table 10, sigma-1/sigma-2): 0.024; IC50 ratio of sigma-1/sigma-2 (sigma-1 selective compounds) [4, 7]: less than 0.1
3 | C[C@H](Cc1ccccc1)NCCC(=O)c1ccccc1 [Compound 9] | > 10000 nM | 2 | 122 nM |  |  |  | 
4 | c1ccc(CCCNC2CCc3ccccc3C2)cc1 (stereo not drawn) [Compound 31] | > 10000 nM | .92 | 19.3 nM |  |  |  | 
5 | c1ccc(CN2CCOC(c3ccccc3)C2)cc1 (stereo not drawn) [Compound 35] | > 10000 nM | 40 | 10400 nM |  |  |  | 
6 | CN1CCN(CC/C=C\c2cccc(C(F)(F)F)c2)CC1 [Compound 105, N-(4-(3-trifluoromethyl)-3-(Z)-butenyl)-N-methylpiperazine] |  |  |  | 9.5 nM | 177 nM | 4960 nM | Ki [4, 6]: 1.5 nM; S1/S2 Ratio ([4]; Table 10, sigma-1/sigma-2): 0.008; IC50 ratio of sigma-1/sigma-2 (sigma-1 selective compounds) [4, 7]: less than 0.1
7 | Clc1ccc(C2=CCN(CCCCc3ccccc3)CC2)cc1 [Compound 38] | > 10000 nM | 25 | 107 nM |  |  |  | 
8 | CC(Cc1ccccc1)NCC1CC1 (stereo not drawn) [Compound 24] | > 10000 nM | 1.4 | 956 nM |  |  |  | 
9 | FC(F)(F)c1cccc(N2CCN(CCc3ccccc3)CC2)c1 [Compound 37] | > 10000 nM | 2.6 | 20.3 nM |  |  |  | 
10 | c1ccc(CCCNC2Cc3ccccc3C2)cc1 [Compound 14] | > 10000 nM | 5.4 | 154 nM |  |  |  | 
11 | C[C@@H](Cc1ccccc1)NCCCc1ccc2ccccc2c1 [Compound 42] | > 10000 nM | 110 | 572 nM |  |  |  | 
12 | c1ccc(CCCCNCc2ccccc2)cc1 [Compound 75, N-(4-phenylbutyl)benzylamine] |  |  |  | 13.6 nM | 162 nM | 255 nM | Ki [3, 9]: 13 nM; Ki [4, 6]: 9.61 nM; S1/S2 Ratio ([4]; Table 10, sigma-1/sigma-2): 0.059; IC50 ratio of sigma-1/sigma-2 (sigma-1 selective compounds) [4, 7]: less than 0.1; IC50 [5]: 160 nM
13 | c1ccc(CCCCCCCNCCc2ccccc2)cc1 [Compound 91, N-(7-phenylheptyl)phenethylamine] |  |  |  | 4.07 nM | 33.2 nM | 732 nM | Ki [3, 9]: 4.1 nM; IC50 ratio of sigma-1/sigma-2 (sigma-1 selective compounds) [4]: less than 0.1; Ki [4, 6]: 1.47 nM; S1/S2 Ratio ([4]; guinea pig, microsomes): 0.044; Ki ([4]; sigma-1 binding affinity): 1.5 nM
14 | C[C@@H](N)Cc1ccccc1 [Compound 28] | > 10000 nM |  |  |  |  |  | 
15 | CCCN(C)CCCCCc1ccccc1 [Compound 112, N-methyl-N-propyl-5-phenylpentylamine] |  |  |  | 2.65 nM | 40.5 nM | 8240 nM | Ki ([3]; running text, Examples 5 and 6, listed as N-methyl-N-propyl-5-phenylpentylamine, read-out: sigma receptor Ki): 2.2 nM; IC50 ([4]; Example 8, read-out: sigma-1 IC50, text): 0.29 nM; Ki ([4]; read-out: SIGMA-1 KI vs. 3H-P[…]): 0.29 nM; IC50 [5]: 40 nM
